ChEMBL document CHEMBL4627278, “Discovery of 2-aminoisobutyric acid ethyl ester (AIBEE) phosphoramidate prodrugs for delivering nucleoside HCV NS5B polymerase inhibitors” (Bioorg Med Chem Lett, 2020)
Converted amounts (≈) assume the structure as drawn.

Columns and labels:
[1] = Half life in human hepatocytes; assay type: ADME, cell-based, Hepatocyte
[2] = Aqueous solubility of compound at pH 7.4; assay type: physicochemical; conditions: buffer
[3] = Prodrug conversion in human hepatocytes assessed as nucleotide triphosphate level at 100 uM after 4 hrs; assay type: ADME, cell-based, Hepatocyte
[4] = Prodrug conversion in human hepatocytes assessed as nucleotide triphosphate level at 100 uM incubated for 4 hrs followed by compound washout and further incubated in fresh media for 24 hrs; assay type: ADME, cell-based, Hepatocyte
[5] = Stability in human plasma assessed as parent compound remaining after 4 hrs; assay type: ADME, cell-free; conditions: read-out: Stability
[6] = Stability in dog plasma assessed as parent compound remaining after 4 hrs; assay type: ADME, cell-free, Canis lupus familiaris; conditions: read-out: Stability
[7] = Prodrug conversion in dog liver assessed as nucleotide triphosphate level at 5 mg/kg, po after 4 hrs; assay type: ADME, organism-based, Canis lupus familiaris; conditions: in vivo
[8] = Prodrug conversion in dog liver assessed as nucleotide triphosphate level at 5 mg/kg, po co-dosed with 5 mg/kg sofosbuvir after 4 hrs; assay type: ADME, organism-based, Canis lupus familiaris; conditions: in vivo
[9] = Prodrug conversion in dog liver assessed as nucleotide triphosphate level at 5 mg/kg, po measured after 24 hrs; assay type: ADME, organism-based, Canis lupus familiaris; conditions: in vivo
[10] = Prodrug conversion in dog liver assessed as nucleotide triphosphate level at 5 mg/kg, po co-dosed with 5 mg/kg sofosbuvir after 24 hrs; assay type: ADME, organism-based, Canis lupus familiaris; conditions: in vivo
[11] = Prodrug conversion in dog liver assessed as (2S)-2-((((2R,3R,4R,5R)-4-bromo-4-chloro-5-(2,4-dioxo-3,4-dihydropyrimidin-1(2H)-yl)-3-hydroxytetrahydrofuran-2-yl)methoxy)(hydroxy)phosphorylamino)propanoic acid level at 5 mg/kg, po after 4 hrs; assay type: ADME, organism-based, Canis lupus familiaris; conditions: in vivo
[12] = Prodrug conversion in dog liver assessed as 2-((((2R,3R,4R,5R)-4-bromo-4-chloro-5-(2,4-dioxo-3,4-dihydropyrimidin-1(2H)-yl)-3-hydroxytetrahydrofuran-2-yl)methoxy)(hydroxy)phosphorylamino)-2-methylpropanoic acid level at 5 mg/kg, po after 4 hrs; assay type: ADME, organism-based, Canis lupus familiaris; conditions: in vivo
[13] = Prodrug conversion in dog liver assessed as (2S)-2-((((2R,3R,4R,5R)-4-bromo-4-chloro-5-(2,4-dioxo-3,4-dihydropyrimidin-1(2H)-yl)-3-hydroxytetrahydrofuran-2-yl)methoxy)(hydroxy)phosphorylamino)propanoic acid level at 5 mg/kg, po after 24 hrs; assay type: ADME, organism-based, Canis lupus familiaris; conditions: in vivo
[14] = Prodrug conversion in dog liver assessed as 2-((((2R,3R,4R,5R)-4-bromo-4-chloro-5-(2,4-dioxo-3,4-dihydropyrimidin-1(2H)-yl)-3-hydroxytetrahydrofuran-2-yl)methoxy)(hydroxy)phosphorylamino)-2-methylpropanoic acid level at 5 mg/kg, po after 24 hrs; assay type: ADME, organism-based, Canis lupus familiaris; conditions: in vivo
[15] = Prodrug conversion in dog liver assessed as 1-((2R,3R,4R,5R)-3-bromo-3-chloro-4-hydroxy-5-(hydroxymethyl)tetrahydrofuran-2-yl)pyrimidine-2,4(1H,3H)-dione level at 5 mg/kg, po after 4 hrs; assay type: ADME, organism-based, Canis lupus familiaris; conditions: in vivo
[16] = Prodrug conversion in dog liver assessed as 1-((2R,3R,4R,5R)-3-bromo-3-chloro-4-hydroxy-5-(hydroxymethyl)tetrahydrofuran-2-yl)pyrimidine-2,4(1H,3H)-dione level at 5 mg/kg, po after 24 hrs; assay type: ADME, organism-based, Canis lupus familiaris; conditions: in vivo
[17] = Intrinsic clearance in human hepatocytes; assay type: ADME, cell-based, Hepatocyte; conditions: read-out: CLH (converted)
[18] = Lipophilicity, log D of compound; assay type: physicochemical; conditions: octanol/water
[19] = Cytotoxicity against human HuH7 cells assessed as reduction in cell viability; assay type: cell-based, Huh-7; conditions: read-out: TD50 (the source's name)

Structure (SMILES) | half-life [1] | solubility [2] | Drug metabolism [3] | Drug metabolism [4] | remaining at 4 h [5] | remaining at 4 h [6] | Drug metabolism [7] | Drug metabolism [8] | Drug metabolism [9] | Drug metabolism [10] | Drug metabolism [11] | Drug metabolism [12] | Drug metabolism [13] | Drug metabolism [14] | Drug metabolism [15] | Drug metabolism [16] | CLint scaled [17] | logD [18] | CC50 [19]
CC(C)OC(=O)C(C)(C)NP(=O)(OC[C@H]1O[C@@H](n2ccc(=O)[nH]c2=O)[C@](Cl)(Br)[C@@H]1O)Oc1ccccc1 (some centres not stated) | > 30 min | > 200 µM | 157 µM | 40 µM | 109% | 104% | 0.713 µg/g | 4.2 µg/g | 0.244 µg/g | 3.43 µg/g | – | – | – | – | 0.252 µg/g | 0.04 µg/g | 192 mL/min/kg | – | –
CC(C)OC(=O)[C@H](C)N[P@](=O)(OC[C@H]1O[C@@H](n2ccc(=O)[nH]c2=O)[C@](Cl)(Br)[C@@H]1OC(=O)[C@@H](N)C(C)C)Oc1cccc2ccccc12 | > 30 min | 4 µM (≈ 3.04 µg/mL) | – | – | – | – | – | – | – | – | – | – | – | – | – | – | – | – | –
CCOC(=O)C(C)(C)NP(=O)(OC[C@H]1O[C@@H](n2ccc(=O)[nH]c2=O)[C@](Cl)(Br)[C@@H]1O)Oc1ccccc1 (some centres not stated) | > 30 min | > 200 µM | 2114 µM | 43 µM | 103% | 111% | 14.73 µg/g | 4.02 µg/g | 4.56 µg/g | 3.47 µg/g | 0.232 µg/g | 0.232 µg/g | 0.065 µg/g | 0.065 µg/g | 1.335 µg/g | 0.192 µg/g | 685 mL/min/kg | – | –
CCOC(=O)[C@H](C)N[P@@](=O)(OC[C@H]1O[C@@H](n2ccc(=O)[nH]c2=O)[C@](Cl)(Br)[C@@H]1O)Oc1ccccc1 | > 30 min | – | 738 µM | 39 µM | – | – | – | – | – | – | – | – | – | – | – | – | 185 mL/min/kg | – | –
CC(C)OC(=O)[C@H](C)N[P@](=O)(OC[C@H]1O[C@@H](n2ccc(=O)[nH]c2=O)[C@](Cl)(Br)[C@@H]1OC(=O)[C@@H](N)C(C)C)Oc1ccccc1 | > 30 min | > 200 µM | 169 µM | 24 µM | – | – | 0.828 µg/g | 3.1 µg/g | 0.409 µg/g | 2.89 µg/g | 0.359 µg/g | 0.359 µg/g | 0.006 µg/g | 0.006 µg/g | 0.341 µg/g | 0.029 µg/g | – | – | –
CC(C)OC(=O)[C@H](C)N[P@](=O)(OC[C@H]1O[C@@H](n2ccc(=O)[nH]c2=O)[C@](Cl)(Br)[C@@H]1O)Oc1cccc2ccccc12 | > 30 min | 17 µM (≈ 11.2 µg/mL) | 81 µM | 9 µM | – | – | – | – | – | – | – | – | – | – | – | – | 575 mL/min/kg | – | –
COCC(C)OC(=O)[C@H](C)NP(=O)(OC[C@H]1O[C@@H](n2ccc(=O)[nH]c2=O)[C@](Cl)(Br)[C@@H]1O)Oc1ccccc1 (some centres not stated) | > 30 min | > 200 µM | 465 µM | 31 µM | 87% | 84% | 0.329 µg/g | – | 0.188 µg/g | – | – | – | – | – | 0.187 µg/g | 0.038 µg/g | 242 mL/min/kg | – | –
COc1cccc(O[P@](=O)(N[C@@H](C)C(=O)OC(C)C)OC[C@H]2O[C@@H](n3ccc(=O)[nH]c3=O)[C@](Cl)(Br)[C@@H]2O)c1 | > 30 min | 20 µM (≈ 12.8 µg/mL) | 35 µM | 14 µM | – | – | – | – | – | – | – | – | – | – | – | – | 335 mL/min/kg | – | –
CC(C)OC(=O)[C@H](C)N[P@](=O)(OC[C@H]1O[C@@H](n2ccc(=O)[nH]c2=O)[C@](C)(F)[C@@H]1O)Oc1ccccc1 [SOFOSBUVIR] | 120 min | > 200 µM | 97 µM | 122 µM | – | – | – | – | – | – | – | – | – | – | – | – | 71.7 mL/min/kg | 3.02 | > 100 µM

Now from value to compound, other results behind:

half-life [1] | solubility [2] | Drug metabolism [3] | Drug metabolism [4] | remaining at 4 h [5] | remaining at 4 h [6] | Drug metabolism [7] | Drug metabolism [8] | Drug metabolism [9] | Drug metabolism [10] | Drug metabolism [11] | Drug metabolism [12] | Drug metabolism [13] | Drug metabolism [14] | Drug metabolism [15] | Drug metabolism [16] | CLint scaled [17] | Structure (SMILES) | logD [18] | CC50 [19]
> 30 min | > 200 µM | 2377 µM | 32 µM | 0% | 54% | 0.252 µg/g | 3.04 µg/g | 0.037 µg/g | 1.12 µg/g | 0.151 µg/g | 0.151 µg/g | < 0.005 µg/g | < 0.005 µg/g | 0.177 µg/g | 0.006 µg/g | – | CC(C)C(=O)OC[C@H](C)NP(=O)(OC[C@H]1O[C@@H](n2ccc(=O)[nH]c2=O)[C@](Cl)(Br)[C@@H]1O)Oc1ccccc1 (some centres not stated) | – | –
15 min | 23 µM (≈ 14 µg/mL) | 110 µM | 22 µM | 92% | 92% | 0.088 µg/g | 1.59 µg/g | 0.049 µg/g | 1.02 µg/g | 0.066 µg/g | 0.066 µg/g | 0.006 µg/g | 0.006 µg/g | 1.469 µg/g | 0.011 µg/g | 273 mL/min/kg | CC(C)OC(=O)[C@H](C)N[P@](=O)(OC[C@H]1O[C@@H](n2ccc(=O)[nH]c2=O)[C@](Cl)(Br)[C@@H]1O)Oc1ccccc1 | 3.51 | 62 µM
> 30 min | > 200 µM | 107 µM | 24 µM | – | – | 0.143 µg/g | 1.76 µg/g | 0.036 µg/g | 1.26 µg/g | 0.644 µg/g | 0.644 µg/g | < 0.005 µg/g | < 0.005 µg/g | 0.501 µg/g | 0.009 µg/g | 202 mL/min/kg | CC(C)OC(=O)[C@H](C)N[P@@](=O)(OC[C@H]1O[C@@H](n2ccc(=O)[nH]c2=O)[C@](Cl)(Br)[C@@H]1O)Oc1ccccc1 | – | –
> 30 min | – | 120 µM | 16 µM | – | – | – | – | – | – | – | – | – | – | – | – | 223 mL/min/kg | COCC(=O)OC[C@H](C)NP(=O)(OC[C@H]1O[C@@H](n2ccc(=O)[nH]c2=O)[C@](Cl)(Br)[C@@H]1O)Oc1ccccc1 (some centres not stated) | – | –
– | – | – | – | 86% | 93% | 1.24 µg/g | 3.87 µg/g | 0.629 µg/g | 3.18 µg/g | 0.357 µg/g | 0.357 µg/g | 0.007 µg/g | 0.007 µg/g | 0.821 µg/g | < 0.025 µg/g | – | CCOC(=O)[C@H](C)NP(=O)(OC[C@H]1O[C@@H](n2ccc(=O)[nH]c2=O)[C@](Cl)(Br)[C@@H]1O)Oc1ccccc1 (some centres not stated) | – | –
> 30 min | – | 90 µM | 18 µM | – | – | – | – | – | – | – | – | – | – | – | – | 152 mL/min/kg | CCOC(=O)[C@H](C)N[P@](=O)(OC[C@H]1O[C@@H](n2ccc(=O)[nH]c2=O)[C@](Cl)(Br)[C@@H]1O)Oc1ccccc1 | – | –
> 30 min | – | 188 µM | 24 µM | – | – | – | – | – | – | – | – | – | – | – | – | 282 mL/min/kg | COCC(C)C(=O)OC[C@H](C)NP(=O)(OC[C@H]1O[C@@H](n2ccc(=O)[nH]c2=O)[C@](Cl)(Br)[C@@H]1O)Oc1ccccc1 (some centres not stated) | – | –
